Experimental data published in US20060135458A1, “Antiviral oligonucleotides” (priority 2002, published 2006).
In the oligonucleotide strings, read from the 5' end, every base follows the letter of its sugar. An asterisk marks phosphorothioate; unmarked linkages are phosphodiester. Other units and linkages are bracketed, terminal groups are in braces. A string of capitals states the bases alone. d = 2'-deoxy (DNA)

Legend:
Influenza A/HK/68 (H3N2) = tested on: Influenza A/HK/68 (H3N2); parameters: species or system Balb/c mice; conditions: mouse, in vivo, ip, 180 mg/kg
[1] = tested on: HSV-1 (strain MacIntyre) lysate; test: Fluorescence polarization binding to HSV-1 lysate; conditions: FITC-labelled ON
RSV (strain A2) lysate = test: Fluorescence polarization binding to RSV lysate; conditions: FITC-labelled ON
HIV-1 (strain Mn) lysate = test: Fluorescence polarization binding to HIV-1 lysate; conditions: FITC-labelled ON
HSV-2 (strain MS2) = test: HSV-2 plaque reduction assay (PRA); format: cell-based
Protocol: The ability of PS-ONs to inhibit HSV-2 is measured by PRA. […] Upon reaching confluency, the media is changed to contain only 5% serum plus supplements as described above and cells are then exposed to HSV-2 (strain MS2, approximately 40-60 PFU total) in the presence of the test compound for 90 minutes. After viral exposure, the media is replaced with new “overlay” media containing 5% serum, 1% human immunoglobulins, supplements as described above and the test compound. Plaque counting is performed 3-4 days post infection following formalin fixation and cresyl violet staining of infected cultures.
(§1) Viral adsorbtion proceeds for 90 minutes, after which cells are washed and replaced with new “overlay” media containing 5% fetal calf serum and 1% human immunoglobins. Three to four days after adsorbtion, cells are fixed by formalin and plaques are counted following formalin fixation and cresyl violet staining.

HSV-1 (strain KOS) = test: HSV-1 plaque reduction assay (PRA) in VERO cells; format: cell-based; conditions: for IC50: VERO cells, HSV-1 strain KOS, linear regressions, read-out: IC50 (anti-HSV-1)
Protocol: The ability of PS-ONs to inhibit HSV-1 is measured in a plaque reduction assay (PRA). […] Upon reaching confluency, the media is changed to contain only 5% serum plus supplements as described above and cells are then exposed to HSV-1 (strain KOS, approximately 40-60 PFU total) in the presence of the test compound for 90 minutes. After viral exposure, the media is replaced with new “overlay” media containing 5% serum, 1% human immunoglobulins, supplements as described above and the test compound. Plaque counting is performed 3-4 days post infection following formalin fixation and cresyl violet staining of infected cultures.
as §1
Upon reaching confluency, the media is changed to contain only 5% serum plus supplements as described above and cells are then exposed to HSV-1 (strain KOS, approximately 40-60 PFU total) in the presence of the test compound for 90 minutes. After viral exposure, the media is replaced with new “overlay” media containing 5% serum, 1% human immunoglobulins, supplements as described above and the test compound. Plaque counting is performed 3-4 days post infection following formalin fixation and cresyl violet staining of infected cultures.

[2] = parameters: Acid stability, pH 5 / Acid stability, pH 7: key to the marks not given beside the values
S1 Nuclease = S1 Nuclease (Aspergillus oryzae, UniProt P24021); conditions: after 4 h at 37° C.
Phosphodiesterase II = conditions: after 4 h at 37° C.
Exonuclease I = Exonuclease I (Escherichia coli, UniProt P04995); parameters: key to the marks not given beside the values; conditions: after 4 h at 37° C.
Exonuclease I, sequence (P04995 whole entry): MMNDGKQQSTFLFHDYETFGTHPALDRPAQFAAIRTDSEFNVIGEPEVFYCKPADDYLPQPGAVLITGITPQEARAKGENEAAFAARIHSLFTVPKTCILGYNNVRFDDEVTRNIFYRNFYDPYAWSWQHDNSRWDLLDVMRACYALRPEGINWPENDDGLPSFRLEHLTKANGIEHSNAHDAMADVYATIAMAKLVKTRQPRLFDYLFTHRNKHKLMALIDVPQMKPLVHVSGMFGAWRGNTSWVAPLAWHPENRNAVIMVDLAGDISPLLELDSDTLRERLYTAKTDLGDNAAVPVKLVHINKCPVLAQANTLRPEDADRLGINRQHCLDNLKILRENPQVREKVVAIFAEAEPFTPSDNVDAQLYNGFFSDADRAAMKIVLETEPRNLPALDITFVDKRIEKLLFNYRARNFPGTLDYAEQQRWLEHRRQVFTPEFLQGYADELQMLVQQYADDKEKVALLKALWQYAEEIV

S1 Nuclease, sequence (P24021 21-287): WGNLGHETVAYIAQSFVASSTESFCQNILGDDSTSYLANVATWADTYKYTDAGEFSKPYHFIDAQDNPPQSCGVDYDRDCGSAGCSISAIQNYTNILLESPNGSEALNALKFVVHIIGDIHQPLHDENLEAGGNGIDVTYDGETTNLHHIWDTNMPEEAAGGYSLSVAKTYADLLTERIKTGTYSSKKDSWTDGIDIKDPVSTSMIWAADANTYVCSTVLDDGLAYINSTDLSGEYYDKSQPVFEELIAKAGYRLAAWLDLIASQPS

| Compound | binding to HSV-1 lysate (fluorescence polarization, mP) [1] | binding to RSV lysate (fluorescence polarization, mP) (RSV (strain A2) lysate) | binding to HIV-1 lysate (fluorescence polarization, mP) (HIV-1 (strain Mn) lysate) | anti-HSV-2 activity (HSV-2 (strain MS2)) | IC50 (HSV-1 (strain KOS)) | other results |
| --- | --- | --- | --- | --- | --- | --- |
| NC(=O)c1ncn([C@@H]2O[C@H](CO)[C@@H](O)[C@H]2O)n1 [Ribavirin] |  |  |  |  |  | Viral titer (log10/g lung) Mean (Influenza A/HK/68 (H3N2)): 3.3 log10/g lung |
| A20: 20-mer PS-ON, polyA, 3′ FITC labelled in the binding test | the weakest interactor of these by a significant margin | the weakest interactor of these by a significant margin | the weakest interactor of these by a significant margin |  |  |  |
| REP 1001: PS-ON directed against a replication origin in humans (343 ARS) (DNA dT*dT*dG*dA*dT*dA*dA*dA*dT*dA*dG*dT*dA*dC*dT*dA*dG*dG*dA*dC) |  |  |  | showed anti-HSV-2 activity | 2760 nM |  |
| REP 2001: PS-ON directed against the origin of replication in HSV (DNA dG*dA*dA*dG*dC*dG*dT*dT*dC*dG*dC*dA*dC*dT*dT*dC*dG*dT*dC*dC*dC*dA) |  |  |  | showed anti-HSV-2 activity | 770 nM |  |
| REP 2017: random sequence 20-mer PS-ON (DNA dA*dC*dA*dC*dC*dT*dC*dC*dG*dA*dA*dG*dA*dC*dG*dA*dT*dA*dA*dC) | capable of HSV-1 and HIV-1 interaction |  | capable of HSV-1 and HIV-1 interaction |  |  |  |
| REP 2029: A40 (polyA) PS-ON (DNA dA*dA*dA*dA*dA*dA*dA*dA*dA*dA*dA*dA*dA*dA*dA*dA*dA*dA*dA*dA*dA*dA*dA*dA*dA*dA*dA*dA*dA*dA*dA*dA*dA*dA*dA*dA*dA*dA*dA*dA) |  |  |  |  |  | Acid stability, pH 1 ([2]; pH 1, 24 h at 37° C.): −; Acid stability, pH 2 ([2]; pH 2, 24 h at 37° C.): −; Acid stability, pH 2.5 ([2]; pH 2.5, 24 h at 37° C.): −; Acid stability, pH 3 ([2]; pH 3, 24 h at 37° C.): −; Acid stability, pH 4 ([2]; pH 4, 24 h at 37° C.): ++ (++ = less than 5-% degradation); Acid stability, pH 5 ([2]; pH 5, 24 h at 37° C.): +++; Acid stability, pH 7 ([2]; pH 7, 24 h at 37° C.): +++; relative anti-HSV-1 efficacy by sequence composition (HSV-1 (strain KOS); PS-ONs of equivalent size, HSV-1 PRA): the least active; Nuclease resistance, S1 (S1 Nuclease): −; Nuclease resistance, PII (Phosphodiesterase II): −; Nuclease resistance, Exo 1 (Exonuclease I): ++++ |
| REP 3007: PS-ON directed against a plasmid (pBR322/pUC) replication origin (DNA dC*dT*dT*dG*dC*dG*dG*dT*dA*dT*dT*dC*dG*dG*dA*dA) |  |  |  | showed anti-HSV-2 activity | 5330 nM |  |
| T20: 20-mer PS-ON, polyT | the weakest interactors | the weakest interactors | the weakest interactors |  |  |  |
| TG10: 20-mer PS-ON, TG repeat | the strongest interaction | the strongest interaction | the strongest interaction |  |  |  |
